{"source": "paper PMC6100073", "about": "“Activation of Anthracene Endoperoxides in Leishmania and Impairment of Mitochondrial Functions” (Molecules : A Journal of Synthetic Chemistry and Natural …, 2018)", "key": {"LtP [1]": {"tested_on": "LtP", "experiment": "EPR (CMH oxidation): superoxide formation in LtP", "format": "cell-based, Leishmania tarentolae", "conditions": "20 µM AA or 100 µM other compounds, 500 × 10^6 LtP/mL, 400 µM CMH, DFO, DTPA, 5 min, 25 °C", "method": "To measure superoxide radical (O2^•−) formation induced by AcEPs in LtP, EPR spectroscopy was used. An aliquot of the cell broth was transferred into an Eppendorf tube that was centrifuged (Hettich Universal 16, 20 °C, 2000× g, 10 min). The supernatant was discarded, the cell pellet was resuspended in PBS and centrifuged again. After removal of the supernatant, the cell pellet was resuspended in a mixture of PBS, 15 mM glucose (PBS/Glu), DFO (100 µM), and DTPA (25 µM). […] The cell suspension was aliquoted. CMH was added as detection agent leading to a final concentration of 400 µM. After 5 min of incubation at 25 °C, the respective substance was added resulting in final concentrations of 20 µM antimycin A (AA) or 100 µM of AcEP1117, AcEP1118, AcEP1129, AcEP1130, Ac, and AQ. Samples containing LtP and CMH were used as negative control. Samples containing PBS/Glu and CMH were used as negative control as well. After 5 min of incubation at 25 °C with the respective substance, aliquots of 17 µL of the cell suspensions were aspirated into a PTFE tube (outer diameter 0.7 mm). The tube was transferred into the MD5 resonator of the EPR spectrometer. Immediately, the measurement was started using the following parameters: microwave frequency 9.684 GHz; microwave power 20 mW, modulation frequency 100 kHz; modulation amplitude 1 G; time constant 0.82 s; center field 3449 G; scan rate 14 G/min; sweep width 100 G; scan time 419 s; attenuation 2.52 × 10^4; and scans 5."}, "[2]": {"experiment": "Xylenol orange assay: reaction of endoperoxides with Fe2+", "conditions": "50 µM compound, 250 µM FeSO4, 125 µM xylenol orange, methanol/H2O (9:1 v/v)", "method": "Xylenol orange (XO) (125 µM) and butylated hydroxytoluene (4 mM) were dissolved in methanol/H2O (9:1, v/v). FeSO4 (25 mM) in 2.5 M H2SO4 was prepared immediately before use and added, giving a final concentration of 250 µM FeSO4 in the samples. An aliquot of 100 µL EP solution (final concentration of 50 µM) was transferred into a disposable 1.5 mL cuvette (BRAND, Wertheim, Germany), and 1 mL of the color reagent was added. […] At these time points, the OD difference of the sample at 560 nm and 650 nm was determined using a MS1501 UV-vis diode array spectrophotometer (Shimadzu, Japan). As reference, a mixture of methanol/H2O (9:1, v/v) was used. […] The slope of the reaction rate was calculated using an extinction coefficient of the complex of 1.5 × 10^4 M^−1 cm^−1."}, "LtP [3]": {"tested_on": "LtP", "experiment": "EPR spin trapping (DMPO): activation of AcEPs by LtP", "format": "cell-based, Leishmania tarentolae", "conditions": "500 µM compound, 2 × 10^9 LtP/mL, 40 mM DMPO, 15 min, no added iron", "method": "To detect the radicals derived from AcEPs in LtP, EPR experiments were performed using DMPO as spin trap. Aliquots of the cell broth were transferred into Sarstedt tubes that were centrifuged (20 °C, 1800× g, 10 min), and the supernatants were discarded. Then the cell pellets were resuspended in PBS and centrifuged again. After removal of the supernatants, the cell pellets were resuspended in a mixture of PBS containing glucose (15 mM), giving a final cell number of 2 × 10^9 LtP/mL. Aliquots (150 µL) were incubated in 1.5 mL Eppendorf tubes with aeration holes. The cells were incubated with DMPO (40 mM) for 5 min at 26 °C, and after addition of 500 µM of the respective substance (Asc, AcEP1117, AcEP1118, AcEP1129, AcEP1130, Ac or AQ), the samples were incubated for additional 15 min at 26 °C under constant agitation (agitation speed: 0.3 s^−1). Control samples containing LtP, LtP and DMSO (1.27%, v/v), or PBS/glucose alone were incubated with 40 mM DMPO under the same conditions. Cell samples containing DMPO that were treated with Asc served as positive control. Samples treated with Ac or AQ were used as negative controls. Subsequently, 50 µL of the samples were aspirated into glass capillaries and transferred in the MD5 resonator of the EPR spectrometer. The samples were measured immediately using the following instrument settings: microwave frequency 9.684 GHz; microwave power 20 mW, modulation frequency 100 kHz; modulation amplitude 2 G; time constant 0.164 s; center field 3449 G; scan rate 71 G/min; sweep width 100 G; scan time 84 s; attenuation 8.93 × 10^5; and scans 3."}, "LtP [4]": {"tested_on": "LtP", "experiment": "Uncoupling of LtP respiration in presence of oligomycin (OxoPlates)", "format": "cell-based, Leishmania tarentolae", "conditions": "38 µM Oligo", "method": "The uncoupling experiments using OxoPlates were carried out in analogy to oxygen consumption measurements of LtP. An oligomycin (Oligo) premix in aBHI was prepared leading to a final concentration of 38 µM oligomycin (Oligo). Each well of the second row was filled with 50 µL of aBHI. From the third row on, each well was filled with 50 µL of the Oligo premix and to the fourth row additional 50 µL Oligo premix was added. The respective amounts of the substances (Ac, AQ, AcEP1117, AcEP1118, AcEP1129, AcEP1130, CCCP) were added and a serial 1:2 dilution was performed. Measurements were carried out as described above. The oxygen consumption rates were normalized to the wells that contained only LtP. For each concentration measurements were done in triplicates."}}}
{"smiles": "CCCCCC[C@H]1C(=O)O[C@H](C)[C@H](NC(=O)c2cccc(NC=O)c2O)C(=O)O[C@@H](C)[C@@H]1OC(=O)CC(C)C", "note": "[AA, antimycin A, reference compound]", "values": [{"measurement": "CMH oxidation (superoxide radical formation) in LtP", "setting": "LtP [1]", "result": "triggered additional CMH oxidation in LtP"}]}
{"smiles": "CC(C)C12C=CC(C)(CC1)OO2", "note": "(centres unmarked) [Asc, ascaridole, reference compound]", "values": [{"measurement": "Slope (nM·min^−1) Mean ± SD of XO/Fe^3+ complex formation", "setting": "[2]", "result": "608 ± 52", "unit": "nM/min"}, {"measurement": "DMPO spin adduct formation in LtP (EPR)", "setting": "LtP [3]", "result": "showed DMPO spin adducts of carbon-centered radicals"}]}
{"smiles": "N#CC(C#N)=NNc1cccc(Cl)c1", "note": "[CCCP, carbonyl cyanide m-chlorophenylhydrazone]", "values": [{"measurement": "uncoupling effect (recovery of O2 consumption in the presence of Oligo)", "setting": "LtP [4]; 0.31–5.0 µM CCCP or 12.5–200.0 µM other compounds", "result": "a recovery of O2 consumption in the presence of Oligo was observed"}]}
{"smiles": "CC[C@H]1/C=C/C=C/C[C@@H](C)[C@H](O)[C@@](C)(O)C(=O)[C@@H](C)[C@H](O)[C@@H](C)C(=O)[C@@H](C)[C@H](O)[C@@H](C)/C=C/C(=O)O[C@@H]2[C@H](C)[C@H](CC1)O[C@]1(CC[C@H](C)[C@H](C[C@@H](C)O)O1)[C@H]2C", "note": "[Oligo, oligomycin]", "values": [{"measurement": "oxygen consumption rate compared to untreated LtP", "setting": "LtP [4]; 140 × 10^6 LtP/mL", "result": "about 60%"}]}
